Data from ChEMBL document CHEMBL3994570, “Euphorbia dendroides Latex as a Source of Jatrophane Esters: Isolation, Structural Analysis, Conformational Study, and Anti-CHIKV Activity” (J Nat Prod, 2016).
The source made the active and inactive calls. The calls are words filed in the database; no cut-off is given here.

Key:
Vero = assay: (§1) Cytotoxicity against African green monkey Vero cells assessed as reduction in metabolic activity by MTS assay; format: ADME, cell-based; conditions: chlorocebus sabaeus, vero
Chikungunya virus = assay: Antiviral activity against Chikungunya virus 899 infected in African green monkey Vero cells assessed as inhibition of virus-induced cytopathic effect after 6 to 7 days by MTS assay; format: functional; conditions: for EC50: Chikungunya virus, 899, Vero
[1] = Selectivity index, ratio of CC50 for African green monkey Vero cells to EC50 for Chikungunya virus 899 infected in African green monkey Vero cells; format: toxicity; conditions: read-out: Ratio CC50/EC50
[2] = as §1; format: ADME, cell-based; conditions: chlorocebus sabaeus, Vero cells

Structure (SMILES) | inhibition (Chikungunya virus) | other results
C=C1[C@H](OC(=O)c2ccccc2)[C@@H](O)[C@@H](OC(C)=O)C(C)(C)/C=C/[C@H](C)C(=O)[C@@]2(O)C[C@@](C)(OC(C)=O)[C@H](O)[C@@H]2[C@H]1OC(=O)c1ccccc1 | inactive | Activity (Vero): Non-Toxic
C=C1[C@H](OC(=O)c2ccccc2)[C@@H](OC(C)=O)[C@@H](OC(C)=O)C(C)(C)/C=C/[C@H](C)C(=O)[C@@]2(O)C[C@@](C)(OC(C)=O)[C@H](O)[C@@H]2[C@H]1OC(=O)C(C)CC (some centres not stated) | inactive | Activity (Vero): Non-Toxic
CC(=O)O[C@H]1[C@@H](OC(C)=O)C(C)(C)/C=C/[C@@](C)(O)C(=O)[C@@]2(OC(C)=O)C[C@@](C)(OC(C)=O)[C@H](OC(C)=O)[C@@H]2[C@H]2OC(=O)CC[C@@]2(OC(C)=O)[C@@H]1OC(=O)C(C)C | inactive | 
C=C1[C@H](OC(=O)C(C)C)[C@@H](OC(C)=O)[C@@H](OC(C)=O)C(C)(C)/C=C/[C@H](C)C(=O)[C@@]2(O)C[C@@](C)(OC(C)=O)[C@H](OC(=O)COC(=O)c3ccccc3)[C@@H]2[C@H]1OC(C)=O |  | selectivity ratio [1]: 3.2; CC50 [2]: 17.7 µM; EC50 (Chikungunya virus): 5.5 µM
CC(=O)O[C@H]1[C@@H](OC(C)=O)C(C)(C)/C=C/[C@H](C)C(=O)[C@@]2(O)C[C@@](C)(OC(C)=O)[C@H](OC(C)=O)[C@@H]2[C@H]2OC(=O)CC[C@@]2(OC(=O)C(C)C)[C@@H]1OC(=O)C(C)C |  | selectivity ratio [1]: 2.4; CC50 [2]: 36 µM; EC50 (Chikungunya virus): 15 µM
C=C1[C@H](OC(=O)c2ccccc2)[C@@H](OC(C)=O)[C@@H](OC(C)=O)C(C)(C)/C=C/[C@H](C)C(=O)[C@@]2(O)C[C@@](C)(OC(C)=O)[C@H](OC(=O)C(C)C)[C@@H]2[C@H]1OC(=O)C(C)C | inactive | 
C=C1[C@H](OC(=O)C(C)C)[C@@H](OC(C)=O)[C@@H](OC(C)=O)C(C)(C)/C=C/[C@H](C)C(=O)[C@@]2(O)C[C@@](C)(OC(C)=O)[C@H](OC(=O)c3ccccc3)[C@@H]2[C@H]1OC(=O)C(C)C | inactive | 
C=C1[C@H](OC(=O)c2ccccc2)[C@@H](OC(C)=O)[C@@H](OC(C)=O)C(C)(C)/C=C/[C@H](C)C(=O)[C@@]2(O)C[C@@](C)(OC(C)=O)[C@H](O)[C@@H]2[C@H]1OC(=O)c1ccccc1 | inactive | Activity (Vero): Non-Toxic
C=C1[C@H](C(=O)C(C)C)[C@H]2[C@@H](OC(C)=O)[C@@H](C)C[C@]2(O)C(=O)[C@@H](C)/C=C/C(C)(C)[C@H](OC(C)=O)[C@H](OC(C)=O)[C@H]1OC(=O)c1ccccc1 | inactive | 
C=C1[C@H](OC(=O)c2ccccc2)[C@@H](OC(C)=O)[C@@H](OC(C)=O)C(C)(C)/C=C/[C@H](C)C(=O)[C@@]2(O)C[C@@](C)(OC(C)=O)[C@H](OC(C)=O)[C@@H]2[C@H]1OC(=O)C(C)C | inactive | 
C=C1[C@H](OC(=O)c2ccccc2)[C@@H](OC(C)=O)[C@@H](OC(C)=O)C(C)(C)/C=C/[C@H](C)C(=O)[C@@]2(O)C[C@@](C)(OC(C)=O)[C@H](O)[C@@H]2[C@H]1OC(=O)C(C)C | inactive | 
CC(=O)O[C@H]1[C@@H](OC(C)=O)C(C)(C)/C=C/[C@@](C)(O)C(=O)[C@@]2(O)C[C@@](C)(OC(C)=O)[C@H](OC(C)=O)[C@@H]2[C@H]2OC(=O)CC[C@@]2(OC(C)=O)[C@@H]1OC(=O)C(C)C | inactive | 
C=C1[C@H](C(=O)C(C)C)[C@H]2[C@@H](OC(C)=O)[C@](C)(O)C[C@]2(O)C(=O)[C@@H](C)/C=C/C(C)(C)[C@H](OC(C)=O)[C@H](OC(C)=O)[C@H]1OC(=O)c1ccccc1 | inactive | 
C=C1[C@H](O)[C@H]2[C@@H](OC(=O)c3ccccc3)[C@](C)(O)C[C@]2(O)C(=O)[C@@H](C)/C=C/C(C)(C)[C@H](OC(C)=O)[C@H](OC(C)=O)[C@H]1OC(=O)c1ccccc1 | inactive | 
CC(=O)O[C@H]1[C@@H](OC(C)=O)C(C)(C)/C=C/[C@H](C)C(=O)[C@@]2(OC(C)=O)C[C@@](C)(OC(C)=O)[C@H](O)[C@@H]2[C@H]2OC(=O)CC[C@@]2(OC(C)=O)[C@@H]1OC(=O)C(C)C | inactive | 
